From patent US20060160851A1, “Substituted piperidine carbamates” (Novo Nordisk A/S, priority 2003, published 2006)

Molecular target: T1, hormone sensitive lipase (Homo sapiens, UniProt Q05469)
T1 construct: made in house
T1 sequence (Q05469 1-1076): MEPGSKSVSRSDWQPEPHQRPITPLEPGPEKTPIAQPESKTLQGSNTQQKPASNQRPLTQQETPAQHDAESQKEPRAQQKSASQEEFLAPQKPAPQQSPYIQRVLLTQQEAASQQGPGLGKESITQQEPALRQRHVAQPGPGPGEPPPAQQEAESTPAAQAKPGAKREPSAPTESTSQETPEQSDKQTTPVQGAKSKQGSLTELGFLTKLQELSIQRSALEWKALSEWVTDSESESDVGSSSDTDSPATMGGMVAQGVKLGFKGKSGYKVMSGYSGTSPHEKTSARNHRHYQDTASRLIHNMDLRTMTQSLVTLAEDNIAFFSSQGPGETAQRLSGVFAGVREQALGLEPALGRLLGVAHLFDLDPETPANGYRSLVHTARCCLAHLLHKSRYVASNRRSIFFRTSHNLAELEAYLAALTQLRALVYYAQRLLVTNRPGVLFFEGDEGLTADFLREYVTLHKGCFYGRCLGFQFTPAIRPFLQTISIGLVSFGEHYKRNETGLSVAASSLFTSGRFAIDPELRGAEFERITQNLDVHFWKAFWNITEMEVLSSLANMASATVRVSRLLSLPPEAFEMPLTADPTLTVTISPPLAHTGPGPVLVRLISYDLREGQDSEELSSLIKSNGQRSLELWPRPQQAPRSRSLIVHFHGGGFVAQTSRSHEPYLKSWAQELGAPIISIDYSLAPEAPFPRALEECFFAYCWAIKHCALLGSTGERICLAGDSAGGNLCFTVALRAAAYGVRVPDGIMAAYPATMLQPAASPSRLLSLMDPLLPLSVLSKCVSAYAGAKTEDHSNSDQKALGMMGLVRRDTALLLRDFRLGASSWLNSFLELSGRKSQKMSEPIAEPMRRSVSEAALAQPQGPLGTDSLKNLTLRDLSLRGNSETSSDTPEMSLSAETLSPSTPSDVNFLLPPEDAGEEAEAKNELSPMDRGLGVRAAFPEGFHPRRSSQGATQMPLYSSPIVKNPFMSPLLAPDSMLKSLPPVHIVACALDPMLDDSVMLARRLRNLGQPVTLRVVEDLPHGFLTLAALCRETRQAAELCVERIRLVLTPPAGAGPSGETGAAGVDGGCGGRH
Assay: Assay 3190.1: percent inhibition of hormone sensitive lipase by compound at 10 μM (fluorochrome-labeled triacylglyceride emulsion, HSL_FL)
Format: biochemical
Conditions: 10 μM sample concentration; % activity relative to non-inhibited sample (no compound); 30 min preincubation at 25° C., 120 min incubation at 37° C.
Description: The Hormone-sensitive lipase was provided by Dr. Cecilia Holm, from Lund University Sweden or produced and purified by Novo Nordisk (NN) using the reagents and protocols used by Dr. Holm. The substrates used are: ^3H-labeled triolein (TO) from Amersham, Buckinghamshire, U.K. cat No. TRA191; 5-20 Ci/mmol dissolved in toluene, triolein (Sigma, Cat. No. T-1740), fluorochrome-labeled triacylglyceride (cis-octadec-9-enoic acid 2-[12-(7-nitrobenzo[1,2,5]oxadiazol-4-ylamino)dodecanoyloxy]-1-cis-octadec-9-enoyloxymethyl-ethyl ester) prepared by Novo Nordisk (NN) by conventional methods, and 1,3-(di[^3H]-stearin), 2-(PEG-Biotin)glycerol prepared in collaboration with Amersham Pharmacia Biotech, UK and described in WO 01/073442. Phosphatidyl choline (PC) and phosphatidyl inositol (PI) are from Sigma (St Luis Mo. cat. Nos. P-3556 and P-5954 respectively). All other reagents are of commercial grade and obtained from various commercial sources.
3190.1: Assay for determination of percent inhibition of hormone sensitive lipase by compound at 10 μM sample concentration.
A lipid emulsion with fluorochrome-labeled triacylglyceride and phospholipid is used as substrate with a standard concentration of highly purified HSL (12 μg/mL initial concentration corresponding to 600 ng/mL final concentration). BSA is added as product acceptor receptor. The transfer of the fluorochrome from the lipid phase to the water (BSA) phase changes the fluorescent properties of the fluorochrome. The changes can be monitored on a fluorimeter with an excitation wavelength of 450 nm and an emission wavelength of 545 nm.
Compound and HSL (20 μL compound, 10 μL enzyme and 70 μL PED-BSA buffer) is pre-incubated for 30 min at 25° C. before addition of substrate (100 μL). Amount of formed product is measured after 120 min incubation at 37° C.
Results are given as percent activity relative to a non-inhibited sample (no compound).

In order of rising “Test 3190.1 HSL_FL % ACTIVITY” value:
1. 4-(4-Carboxymethyl-phenoxy)-piperidine-1-carboxylic acid 4-(2-phenoxy-ethyl)-phenyl ester [Example 92]  3%
2. 4-(4-Carboxymethyl-phenoxy)-piperidine-1-carboxylic acid 4-[2-(1-methyl-1H-tetrazol-5-yloxy)-ethyl]-phenyl ester [Example 94]  6%

Same assay, conditions: 10 μM sample concentration; % activity relative to non-inhibited sample (no compound); 30 min preincubation at 25° C., 120 min incubation at 37° C.; read-out: Test 3190.1 HSL_FL % ACTIVITY

In order of rising activity at 10 µM:
1. Cc1ccc(Cc2ccc(OC(=O)N3CCC(On4cccn4)CC3)cc2)nc1 [Example 48, 4-(Pyrazol-1-yloxy)-piperidine-1-carboxylic acid 4-(5-methyl-pyridin-2-ylmethyl)-phenyl ester]  1%
2. O=C(O)CCc1ccc(OC2CCN(C(=O)Oc3ccc(Oc4ccc(C(F)(F)F)cn4)cc3)CC2)cc1 [Example 37, 4-[4-(2-Carboxy-ethyl)-phenoxy]-piperidine-1-carboxylic acid 4-(5-trifluoromethyl-pyridin-2-yloxy)-phenyl ester]  1%
3. Cc1ccc(Cc2ccc(OC(=O)N3CCC(Oc4ccccc4)CC3)cc2)cn1 [Example 50, 4-Phenoxy-piperidine-1-carboxylic acid 4-(6-methyl-pyridin-3-ylmethyl)-phenyl ester]  3%
4. O=C(O)Cc1ccc(OCC2CCN(C(=O)Oc3ccc(Oc4ccc(C(F)(F)F)cn4)cc3)CC2)cc1 [Example 44, 4-(4-Carboxymethyl-phenoxymethyl)-piperidine-1-carboxylic acid 4-(5-trifluoromethyl-pyridin-2-yloxy)-phenyl ester]  5%
5. Cc1ccc(CC2CCN(C(=O)Oc3ccc(Cc4ccc(C(F)(F)F)cc4)cc3)CC2)nc1 [Example 71, 4-(5-Methyl-pyridin-2-ylmethyl)-piperidine-1-carboxylic acid 4-(4-trifluoromethyl-benzyl)-phenyl ester]  9%
6. O=C(Oc1ccc(Oc2ccc(C(F)(F)F)cn2)cc1)N1CCC(On2nccc2Sc2ccccc2)CC1 [Example 12, 4-(5-Phenylsulfanyl-pyrazol-1-yloxy)-piperidine-1-carboxylic acid 4-(5-trifluoromethyl-pyridin-2-yloxy)-phenyl ester]  11%
7. O=C(O)c1ccc(-c2ccc(OC3CCN(C(=O)Oc4ccc(Oc5ccc(C(F)(F)F)cn5)cc4)CC3)cc2)cc1 [Example 35, 4-(4′-Carboxy-biphenyl-4-yloxy)-piperidine-1-carboxylic acid 4-(5-trifluoromethyl-pyridin-2-yloxy)-phenyl ester]  14%
